Test results published in US8269043B2, “Bicyclic aryl sphingosine 1-phosphate analogs” (Biogen Idec MA Inc., priority 2008, dated 2012).

Tested on: circulating lymphocytes
Assay: Lymphopenia assay: circulating lymphocytes after oral gavage
Format: in vivo
Settings: C57bl/6 male mice, oral gavage 0.5 and 5 mg/kg in 30% HPCD, blood 5 and 24 hours after administration; for ED50: Mus musculus, Lymphocyte, po
Procedure: Measurement of circulating lymphocytes: Compounds were dissolved in 30% HPCD. Mice (C57bl/6 male, 6-10 week-old) were administered 0.5 and 5 mg/kg of a compound via oral gavage. 30% HPCD was included as a negative control.
Blood was collected from the retro-orbital sinus 5 and 24 hours after drug administration under short isoflurane anesthesia. Whole blood samples were subjected to hematology analysis. Peripheral lymphocyte counts were determined using an automated analyzer (HEMAVET™ 3700). Three mice were used to assess the lymphocyte depletion activity of each compound screened.
Compounds of formula (I) induced full lymphopenia at times as short as 3 hours or less to as long as 48 hours or more; for example, 4 to 36 hours, or 5 to 24 hours. In some cases, a compound of formula induced full lymphopenia at 5 hours and partial lymphopenia at 24 hours. The dosage required to induce lymphopenia can be in the range of, e.g., 0.001 mg/kg to 100 mg/kg; or 0.01 mg/kg to 10 mg/kg. The dosage can be 10 mg/kg or less, such as 5 mg/kg or less, 1 mg/kg or less, or 0.1 mg/kg or less

Row | SMILES | ED50 [mg/kg] | Lymphopenia (ED50 mg/kg) [mg/kg]
1 | CC(C)(C)[C@H]1CC[C@H](Oc2ccc3cc([C@]4(C)COC(=O)N4)ccc3c2)CC1 [Example 238, (R)-4-(6-(trans-4-tert-butylcyclohexyloxy)naphthalen-2-yl)-4-methyloxazolidin-2-one] | < 0.5 | 
2 | C[C@](N)(CO)c1ccc2cc(O[C@H]3CC[C@@H](C(F)(F)F)CC3)ccc2c1 [Example 259, (R)-2-Amino-2-[6-(cis-4-trifluoromethyl-cyclohexyloxy)-naphthalen-2-yl]-propan-1-ol] | 0.5 to 5 | 
3 | CCCCCOc1ccc(Oc2ccc3cc(C(N)(CO)CO)ccc3c2)cc1 [Example 251, 2-amino-2-(6-(4-(pentyloxy)phenoxy)naphthalen-2-yl)propane-1,3-diol] | < 0.5 | 
4 | CN[C@@](C)(CO)c1ccc2cc(OC3CCC(C(C)(C)C)CC3)ccc2c1 (stereo partly drawn) [Example 112, (R)-2-[6-(4-tert-butyl-cyclohexyloxy)-naphthalen-2-yl]-2-methylamino-propan-1-ol] | 0.5 to 5 | 
5 | CCC(F)(F)[C@H]1CC[C@H](Oc2ccc3cc([C@@](C)(N)CO)ccc3c2)CC1 [Example 305, (R)-2-amino-2-(6-(trans-4-(1,1-difluoropropyl)cyclohexyloxy)naphthalen-2-yl)propan-1-ol] | < 0.5 | 
6 | Cl.NC(CO)(CO)c1ccc2cc(O[C@H]3C[C@@H](COCc4ccccc4)C3)ccc2c1 [Example 66] |  | <0.5
7 | C[C@](N)(CO)c1ccc2cc(O[C@H]3CC[C@H](C(F)(F)F)CC3)ccc2c1 [Example 260, (R)-2-Amino-2-[6-(trans-4-trifluoromethyl-cyclohexyloxy)-naphthalen-2-yl]-propan-1-ol] | 0.5 to 5 | 
8 | C[C@](N)(CO)c1ccc2cc(OC3CCC(C4CCCCC4)CC3)ccc2c1 (stereo partly drawn) [Example 89, (R)-2-Amino-2-[6-(bicyclohexyl-4-yloxy)-naphthalen-2-yl]-propan-1-ol] | 0.5 to 5 | 
9 | CC(F)(F)[C@H]1CC[C@H](Oc2ccc3cc([C@@](C)(N)CO)ccc3c2)CC1 [Example 299, (R)-2-amino-2-(6-(trans-4-(1,1-difluoroethyl)cyclohexyloxy)naphthalen-2-yl)propan-1-ol] | < 0.5 | 
10 | C[C@@]1(c2ccc3c(C(F)(F)F)c(O)ccc3c2)COC(=O)N1 [Example 130, (R)-4-(6-hydroxy-5-(trifluoromethyl)naphthalen-2-yl)-4-methyloxazolidin-2-one] | > 5 | 
11 | NC(CO)(CO)c1ccc2cc(Oc3cccc(OCC4CCCCC4)c3)ccc2c1 [Example 199, 2-Amino-2-(6-(3-(cyclohexylmethoxy)phenoxy)naphthalen-2-yl)propane-1,3-diol] | < 0.5 | 
12 | CC(C)C1CCC(Oc2ccc3cc([C@@](C)(N)CO)ccc3c2)CC1 (stereo partly drawn) [Example 91, (R)-2-Amino-2-[6-(4-isopropyl-cyclohexyloxy)-naphthalen-2-yl]-propan-1-ol] | 0.5 to 5 | 
13 | CC(C)(C)[C@H]1CC[C@H](Oc2ccc3cc([C@@](C)(N)CO)ccc3c2-c2cccc(Cl)c2)CC1 [Example 231, (R)-2-amino-2-(6-(trans-4-tert-butylcyclohexyloxy)-5-(3-chlorophenyl)naphthalen-2-yl)propan-1-ol] | > 5 | 
14 | CC(C)(C)[C@H]1CC[C@H](Oc2ccc3cc([C@@](C)(N)CO)ccc3c2)CC1 [Example 49, (R)-2-amino-2-(6-(trans-4-tert-butylcyclohexyloxy)naphthalen-2-yl)propan-1-ol] |  | 0.4
15 | CCCCC1CCC(Oc2ccc3cc([C@@](C)(N)CO)ccc3c2)CC1 (stereo partly drawn) [Example 7, (R)-2-amino-2-(6-(4-butylcyclohexyloxy)naphthalen-2-yl)propan-1-ol] | < 0.5 | 
16 | CCCC(F)(F)[C@H]1CC[C@H](Oc2ccc3cc([C@@](C)(N)CO)ccc3c2)CC1 [Example 311, (R)-2-amino-2-(6-(trans-4-(1,1-difluorobutyl)cyclohexyloxy)naphthalen-2-yl)propan-1-ol] | < 0.5 | 
17 | CC(CO)c1ccc2c(C(F)(F)F)c(O[C@H]3CC[C@H](C(C)(C)C)CC3)ccc2c1 (relative stereo) [Example 275, 2-[6-(trans-4-tert-Butyl-cyclohexyloxy)-5-trifluoromethyl-naphthalen-2-yl]-propan-1-ol] | > 5 | 
18 | CC(C)Cc1ccc(Oc2ccc3cc([C@@](C)(N)CO)ccc3c2)cc1 [Example 178, (R)-2-Amino-2-(6-(4-isobutylphenoxy)naphthalen-2-yl)propan-1-ol] | < 0.5 | 
19 | CCCC[C@H]1CC[C@H](Oc2ccc3cc([C@@](C)(N)CO)ccc3c2)CC1 [Example 8, (R)-2-amino-2-(6-(trans-4-butylcyclohexyloxy)naphthalen-2-yl)propan-1-ol] | < 0.5 | 

Row | SMILES | ED50 [mg/kg] | Lymphopenia (ED50 mg/kg) [mg/kg]
20 | C[C@](N)(CO)c1ccc2c(C(F)(F)F)c(O[C@H]3C[C@H](COCc4ccccc4)C3)ccc2c1 (relative stereo) [Example 82] |  | <0.5
21 | C[C@](N)(CO)c1ccc2cc(Oc3cccc(OC(F)(F)F)c3)ccc2c1 [Example 175, (R)-2-Amino-2-(6-(3-(trifluoromethoxy)phenoxy)naphthalen-2-yl)propan-1-ol] | 0.5 to 5 | 
22 | CC(C)(C)[C@H]1CC[C@H](Oc2ccc3cc(C4(N)COC4)ccc3c2C(F)(F)F)CC1 [Example 153, 3-(6-(trans-4-tert-butylcyclohexyloxy)-5-(trifluoromethyl)naphthalen-2-yl)oxetan-3-amine] | < 0.5 | 
23 | NC(CO)(CO)c1ccc2c(C(F)(F)F)c(O[C@H]3C[C@@H](COCc4ccccc4)C3)ccc2c1 [Example 74] |  | <0.5
24 | CC(N)(CO)c1ccc2c(C(F)(F)F)c(O[C@H]3CC[C@H](C(C)(C)C)CC3)ccc2c1 (relative stereo) [Example 276, 2-Amino-2-[6-(trans-4-tert-butyl-cyclohexyloxy)-5-trifluoromethyl-naphthalen-2-yl]-propan-1-ol] | < 0.5 | 
25 | CC(C)(C)[C@H]1CC[C@H](Oc2ccc3cc([C@@](C)(N)CO)ccc3c2-c2ccc(Cl)cc2)CC1 [Example 233, (R)-2-amino-2-(6-(trans-4-tert-butylcyclohexyloxy)-5-(4-chlorophenyl)naphthalen-2-yl)propan-1-ol] | > 5 | 
26 | CCCCCOc1cccc(Oc2ccc3cc(C(N)(CO)CO)ccc3c2)c1 [Example 196, 2-Amino-2-(6-(3-(pentyloxy)phenoxy)naphthalen-2-yl)propane-1,3-diol] | < 0.5 | 
27 | CCC(C)(C)[C@H]1CC[C@H](Oc2ccc3cc([C@@](C)(N)CO)ccc3c2)CC1 (relative stereo) [Example 78, (R)-2-Amino-2-[6-(4-trans-tert-pentylcyclohexyloxy)naphthalen-2-yl]propan-1-ol] |  | 0.5 to 5
28 | NC(CO)(CO)c1ccc2cc(Oc3ccc(OCc4ccccc4)cc3)ccc2c1 [Example 248, 2-amino-2-(6-(4-(benzyloxy)phenoxy)naphthalen-2-yl)propane-1,3-diol] | < 0.5 | 
29 | NC(CO)(CO)c1ccc2cc(Sc3cccc(OCc4ccccc4)c3)ccc2c1 [Example 192, 2-Amino-2-(6-(3-(benzyloxy)phenylthio)naphthalen-2-yl)propane-1,3-diol] | < 0.5 | 
30 | C[C@](N)(CO)c1ccc2cc(OC3CCC4CCCCC4C3)ccc2c1 (stereo partly drawn) [Example 87, (R)-2-Amino-2-[6-(decahydro-naphthalen-2-yloxy)-naphthalen-2-yl]-propan-1-ol] | 0.5 to 5 | 
31 | CC(C)(C)[C@H]1CC[C@H](Oc2ccc3cc([C@@](C)(N)CO)ccc3c2C2CC2)CC1 [Example 215, (R)-2-amino-2-(6-(trans-4-tert-butylcyclohexyloxy)-5-cyclopropylnaphthalen-2-yl)propan-1-ol] | < 0.5 | 
32 | C[C@](N)(CO)c1ccc2cc(OC3CCC4(CCCCC4)CC3)ccc2c1 [Example 133, (2R)-2-amino-2-(6-(spiro[5.5]undecan-3-yloxy)naphthalen-2-yl)propan-1-ol] | 0.5 to 5 | 
33 | CC(C)(C)[C@H]1CC[C@H](Oc2ccc3cc([C@@](C)(N)CO)ccc3c2Br)CC1 [Example 237, (R)-2-amino-2-(5-bromo-6-(trans-4-tert-butylcyclohexyloxy)naphthalen-2-yl)propan-1-ol] | < 0.5 | 
34 | NC(CO)(CO)c1ccc2cc(Oc3cccc(OCCCC(F)(F)F)c3)ccc2c1 [Example 200, 2-Amino-2-(6-(3-(4,4,4-trifluorobutoxy)phenoxy)naphthalen-2-yl)propane-1,3-diol] | < 0.5 | 
35 | CC(C)Oc1ccc(Oc2ccc3cc([C@@](C)(N)CO)ccc3c2)cc1 [Example 189, (R)-2-Amino-2-[6-(4-isopropoxy-phenoxy)-naphthalen-2-yl]-propan-1-ol] | < 0.5 | 
36 | C[C@](N)(CO)c1ccc2c(C(F)(F)F)c(O[C@H]3CC[C@H](C4CCCC4)CC3)ccc2c1 [Example 103, (R)-2-Amino-2-[6-(trans-4-cyclopentyl-cyclohexyloxy)-5-trifluoromethyl-naphthalen-2-yl]-propan-1-ol] | > 5 | 
37 | CCC(F)(F)[C@H]1CC[C@H](Oc2ccc3cc([C@@](C)(N)CO)ccc3c2C(F)(F)F)CC1 [Example 337, (R)-2-amino-2-(6-(trans-4-(1,1-difluoropropyl)cyclohexyloxy)-5-(trifluoromethyl)naphthalen-2-yl)propan-1-ol] | < 0.5 | 
38 | C[C@](N)(CO)c1ccc2c(C(F)(F)F)c(O[C@H]3CC[C@@H](C4CCCCC4)CC3)ccc2c1 [Example 160, (R)-2-Amino-2-(6-(cis-4-cyclohexylcyclohexyloxy)-5-(trifluoromethyl)naphthalen-2-yl)propan-1-ol] | > 5 | 
